Laboratory results from ChEMBL document CHEMBL1201862, “PubChem BioAssay data set” (2004).
Activity calls are given as the source filed them.

Tests used:
[1] = target: Eukaryotic translation initiation factor 4E (Mus musculus, UniProt P63073); experiment: blockers of eIF4G binding by eIF4E – biochemical, TR-FRET, dose response (AID 855); type: functional;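 also: potency for disrupting eIF4E binding to eIF4GI seen as loss of FRET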
[2] = target: FAD-linked sulfhydryl oxidase ALR (Homo sapiens, UniProt P55789); experiment: ALR-catalysed DTT oxidation blockers – biochemical, H2O2 detection, luminescence, cherry-pick, dose response (AID 493248)
[3] = target: Glucose-6-phosphate 1-dehydrogenase (Homo sapiens, UniProt P11413); experiment: inhibition of Homo sapiens G6PD, dose series – biochemical, fluorescence, selectivity assay for P. falciparum G6PD inhibitor project, dose response (AID 504792); type: functional
[4] = target: Induced myeloid leukemia cell differentiation protein Mcl-1 (Homo sapiens, UniProt Q07820); type: functional
[5] = target: T1, Polyadenylate-binding protein 1 (Homo sapiens, UniProt P11940); experiment: MLLE domain peptide-binding blockers, IC50 – biochemical, fluorescence polarization, FITC-PAM2 peptide, dose response (AID 602259); type: functional; settings: read-out: IC50_Mean
T1 sequence (P11940 whole entry, the tested form may be a part): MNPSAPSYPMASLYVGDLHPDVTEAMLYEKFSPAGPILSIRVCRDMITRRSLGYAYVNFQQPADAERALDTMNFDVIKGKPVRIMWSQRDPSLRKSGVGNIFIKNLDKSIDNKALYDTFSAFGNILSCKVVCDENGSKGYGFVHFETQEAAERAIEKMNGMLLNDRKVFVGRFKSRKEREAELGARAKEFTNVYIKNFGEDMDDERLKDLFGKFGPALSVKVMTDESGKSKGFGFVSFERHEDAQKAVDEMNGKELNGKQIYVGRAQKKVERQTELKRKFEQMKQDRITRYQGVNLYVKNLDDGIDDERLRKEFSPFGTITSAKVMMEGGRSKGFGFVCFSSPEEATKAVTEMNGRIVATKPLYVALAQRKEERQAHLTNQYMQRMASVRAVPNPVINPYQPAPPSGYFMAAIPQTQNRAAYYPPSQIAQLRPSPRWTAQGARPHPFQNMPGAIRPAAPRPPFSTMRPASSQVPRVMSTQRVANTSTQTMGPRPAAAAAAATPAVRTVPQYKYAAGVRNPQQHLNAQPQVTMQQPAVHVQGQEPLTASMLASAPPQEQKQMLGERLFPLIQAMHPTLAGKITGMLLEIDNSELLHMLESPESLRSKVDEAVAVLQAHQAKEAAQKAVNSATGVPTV

[6] = target: T1, Polyadenylate-binding protein 1; experiment: MLLE binding blockers, Cy5 peptide tracer – biochemical, fluorescence polarization, Cy5-PAM2 peptide, secondary, miRNA deadenylation inhibitor project, dose response (AID 602260); type: functional; settings: read-out: IC50_Mean
[7] = target: Ras and Rab interactor 1/Tyrosine-protein kinase ABL1 (Homo sapiens, UniProt P00519+Q13671); type: functional;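 also: biochemical TR-FRET dose-response test measuring inhibition of binding between Rin1 and Abl proteins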
Ras and Rab interactor 1/Tyrosine-protein kinase ABL1, sequence (P00519 whole entry): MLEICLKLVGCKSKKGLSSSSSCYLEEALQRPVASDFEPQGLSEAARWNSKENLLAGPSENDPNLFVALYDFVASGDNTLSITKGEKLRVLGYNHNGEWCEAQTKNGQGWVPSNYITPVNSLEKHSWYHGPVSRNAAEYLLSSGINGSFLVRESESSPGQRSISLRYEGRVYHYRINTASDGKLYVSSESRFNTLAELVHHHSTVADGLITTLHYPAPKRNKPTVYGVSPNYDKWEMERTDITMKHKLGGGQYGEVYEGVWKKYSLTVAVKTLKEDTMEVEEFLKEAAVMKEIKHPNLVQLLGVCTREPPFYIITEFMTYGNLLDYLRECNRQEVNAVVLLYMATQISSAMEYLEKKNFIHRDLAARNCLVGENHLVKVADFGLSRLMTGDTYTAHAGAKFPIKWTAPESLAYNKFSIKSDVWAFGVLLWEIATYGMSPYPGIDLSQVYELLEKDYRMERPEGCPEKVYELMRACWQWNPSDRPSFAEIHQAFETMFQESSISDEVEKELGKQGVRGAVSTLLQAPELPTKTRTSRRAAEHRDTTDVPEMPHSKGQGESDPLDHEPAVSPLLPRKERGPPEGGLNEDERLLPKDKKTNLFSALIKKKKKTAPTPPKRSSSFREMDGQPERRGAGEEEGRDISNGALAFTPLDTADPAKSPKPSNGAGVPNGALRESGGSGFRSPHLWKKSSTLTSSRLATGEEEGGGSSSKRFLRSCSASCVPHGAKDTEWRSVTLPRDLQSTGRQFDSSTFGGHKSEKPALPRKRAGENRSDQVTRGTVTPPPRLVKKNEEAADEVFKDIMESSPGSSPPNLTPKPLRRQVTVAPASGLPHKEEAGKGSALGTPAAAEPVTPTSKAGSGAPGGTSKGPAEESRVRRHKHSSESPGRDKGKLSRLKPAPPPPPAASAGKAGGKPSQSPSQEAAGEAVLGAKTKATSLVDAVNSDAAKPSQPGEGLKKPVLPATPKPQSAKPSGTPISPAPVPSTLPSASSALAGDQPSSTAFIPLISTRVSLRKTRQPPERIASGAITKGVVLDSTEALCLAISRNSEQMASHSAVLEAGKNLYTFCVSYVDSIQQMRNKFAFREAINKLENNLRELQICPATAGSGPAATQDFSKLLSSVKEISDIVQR
Ras and Rab interactor 1/Tyrosine-protein kinase ABL1, sequence (Q13671 whole entry): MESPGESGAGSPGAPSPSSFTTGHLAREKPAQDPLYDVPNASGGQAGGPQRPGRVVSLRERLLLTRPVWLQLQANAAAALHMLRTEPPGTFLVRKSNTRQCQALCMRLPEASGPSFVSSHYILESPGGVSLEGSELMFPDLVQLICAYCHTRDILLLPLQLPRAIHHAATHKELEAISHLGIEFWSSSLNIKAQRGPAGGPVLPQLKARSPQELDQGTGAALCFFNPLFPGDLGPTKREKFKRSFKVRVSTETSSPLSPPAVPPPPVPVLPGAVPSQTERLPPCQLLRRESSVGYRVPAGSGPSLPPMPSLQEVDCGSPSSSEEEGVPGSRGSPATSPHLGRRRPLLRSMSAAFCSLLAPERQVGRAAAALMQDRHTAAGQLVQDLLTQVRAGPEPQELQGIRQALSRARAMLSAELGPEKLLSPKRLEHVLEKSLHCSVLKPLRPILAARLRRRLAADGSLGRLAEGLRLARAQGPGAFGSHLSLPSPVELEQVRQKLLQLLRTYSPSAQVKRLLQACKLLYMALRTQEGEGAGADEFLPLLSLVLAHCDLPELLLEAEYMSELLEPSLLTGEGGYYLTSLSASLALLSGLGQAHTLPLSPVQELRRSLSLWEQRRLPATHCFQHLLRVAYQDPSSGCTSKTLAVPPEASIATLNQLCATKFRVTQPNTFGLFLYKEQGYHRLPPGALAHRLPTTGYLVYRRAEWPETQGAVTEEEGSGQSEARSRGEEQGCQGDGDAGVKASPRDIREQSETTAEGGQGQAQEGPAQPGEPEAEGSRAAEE

[8] = target: Nonstructural protein 1 (Influenza A virus, UniProt Q194T2); type: functional, Influenza A virus (A/California/07/2009(H1N1))
[9] = Luminescence Cell-Based Dose Response HTS to Identify Activators of Luciferase Translation or Activity in H4 […] Cells. [Related pubchem assays: 1829 (Project Summary), 1814 (Primary HTS)]; type: functional
[10] = system: H4; experiment: Luminescence Cell-Based Dose Response HTS to Identify Activators of 5'UTR Stem-Loop Driven Prion Protein mRNA Translation in H4 Neuroglioblastoma Cells. [Related pubchem assays: 1829 (Project Summary), 1814 (Primary HTS)]; type: functional; settings: Homo sapiens
[11] = Luminescence Cell-Based Dose Confirmation HTS to Identify Activators of 5'UTR Stem-Loop Driven Alpha-Synuclein mRNA Translation in H4 Neuroglioblastoma Cells. [Related pubchem assays: 1829 (Project Summary), 1814 (Primary HTS)]; type: functional
[12] = target: Voltage-dependent T-type calcium channel subunit alpha-1H (Homo sapiens, UniProt O95180); type: functional;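 also: channel activity triggered by adding a high calcium stimulation buffer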
Voltage-dependent T-type calcium channel subunit alpha-1H, sequence (O95180 whole entry, the tested form may be a part): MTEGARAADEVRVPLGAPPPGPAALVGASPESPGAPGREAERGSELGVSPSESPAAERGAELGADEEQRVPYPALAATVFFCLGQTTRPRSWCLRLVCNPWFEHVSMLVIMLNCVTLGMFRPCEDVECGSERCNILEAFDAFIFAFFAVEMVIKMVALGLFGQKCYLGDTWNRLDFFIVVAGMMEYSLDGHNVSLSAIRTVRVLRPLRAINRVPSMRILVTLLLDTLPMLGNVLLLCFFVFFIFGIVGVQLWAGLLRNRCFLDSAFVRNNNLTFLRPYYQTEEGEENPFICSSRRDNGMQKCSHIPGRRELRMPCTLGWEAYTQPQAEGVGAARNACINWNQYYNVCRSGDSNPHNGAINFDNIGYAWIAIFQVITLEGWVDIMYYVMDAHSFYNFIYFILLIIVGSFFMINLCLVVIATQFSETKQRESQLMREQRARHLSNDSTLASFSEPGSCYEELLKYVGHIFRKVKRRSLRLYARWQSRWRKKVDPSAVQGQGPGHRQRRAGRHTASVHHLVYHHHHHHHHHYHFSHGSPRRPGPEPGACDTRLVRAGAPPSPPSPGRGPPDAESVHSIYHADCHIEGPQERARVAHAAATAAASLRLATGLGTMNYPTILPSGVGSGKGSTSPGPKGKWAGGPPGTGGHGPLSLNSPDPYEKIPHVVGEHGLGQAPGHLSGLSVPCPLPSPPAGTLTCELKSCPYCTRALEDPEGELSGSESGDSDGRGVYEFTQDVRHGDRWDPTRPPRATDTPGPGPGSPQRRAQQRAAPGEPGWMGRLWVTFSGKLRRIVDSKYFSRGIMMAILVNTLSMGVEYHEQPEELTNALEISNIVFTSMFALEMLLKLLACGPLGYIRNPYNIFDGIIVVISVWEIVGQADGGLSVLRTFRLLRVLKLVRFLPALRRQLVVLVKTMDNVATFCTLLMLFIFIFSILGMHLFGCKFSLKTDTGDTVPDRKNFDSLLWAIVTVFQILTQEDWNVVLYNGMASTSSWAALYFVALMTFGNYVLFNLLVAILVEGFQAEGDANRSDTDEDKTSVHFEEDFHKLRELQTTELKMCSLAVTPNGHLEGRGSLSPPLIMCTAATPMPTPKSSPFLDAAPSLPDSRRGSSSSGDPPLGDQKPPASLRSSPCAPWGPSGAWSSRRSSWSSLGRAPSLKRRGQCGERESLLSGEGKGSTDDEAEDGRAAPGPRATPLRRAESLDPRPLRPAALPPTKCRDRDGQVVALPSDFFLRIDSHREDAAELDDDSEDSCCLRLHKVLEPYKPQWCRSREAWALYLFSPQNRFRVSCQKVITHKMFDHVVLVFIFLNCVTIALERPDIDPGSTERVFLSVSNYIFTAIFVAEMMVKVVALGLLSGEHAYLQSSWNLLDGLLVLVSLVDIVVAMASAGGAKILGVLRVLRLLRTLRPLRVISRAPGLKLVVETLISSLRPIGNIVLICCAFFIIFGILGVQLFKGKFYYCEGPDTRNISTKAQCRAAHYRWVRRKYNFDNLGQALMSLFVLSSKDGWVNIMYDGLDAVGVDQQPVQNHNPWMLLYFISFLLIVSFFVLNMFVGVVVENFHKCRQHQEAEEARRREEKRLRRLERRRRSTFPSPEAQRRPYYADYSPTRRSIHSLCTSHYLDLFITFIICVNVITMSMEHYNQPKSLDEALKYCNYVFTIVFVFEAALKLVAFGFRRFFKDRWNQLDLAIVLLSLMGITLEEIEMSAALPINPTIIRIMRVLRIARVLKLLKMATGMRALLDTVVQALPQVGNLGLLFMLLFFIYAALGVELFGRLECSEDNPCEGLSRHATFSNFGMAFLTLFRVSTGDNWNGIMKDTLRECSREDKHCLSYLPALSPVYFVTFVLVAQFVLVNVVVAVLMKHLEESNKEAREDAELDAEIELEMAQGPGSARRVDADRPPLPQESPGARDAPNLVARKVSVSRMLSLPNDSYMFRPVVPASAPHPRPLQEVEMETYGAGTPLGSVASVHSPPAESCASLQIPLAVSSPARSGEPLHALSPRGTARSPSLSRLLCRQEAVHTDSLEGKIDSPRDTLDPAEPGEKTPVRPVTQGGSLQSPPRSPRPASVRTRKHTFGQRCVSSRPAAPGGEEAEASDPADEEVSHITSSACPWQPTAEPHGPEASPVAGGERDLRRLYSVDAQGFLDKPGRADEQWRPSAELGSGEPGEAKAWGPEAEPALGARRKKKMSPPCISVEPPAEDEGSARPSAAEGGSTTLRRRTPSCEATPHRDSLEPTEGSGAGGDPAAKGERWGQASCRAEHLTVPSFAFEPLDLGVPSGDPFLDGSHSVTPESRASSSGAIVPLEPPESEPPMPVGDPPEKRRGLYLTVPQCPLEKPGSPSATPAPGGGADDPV

[13] = HIV-1 AD8 envelope cell-cell fusion blockers – cherry-pick, dose response (AID 652062); type: functional, cell-based;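 also: luciferase signal from cell-cell fusion driven by HIV-1 clade B AD8 Env; potency is for inhibitors of fusion seen as a drop in luminescence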
[14] = blockers of HIV-1 ZM109 envelope-driven cell-cell fusion – HeLa effector, CEM target cells, luciferase, cherry-pick, dose response (AID 652058); type: functional, cell-based;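 also: luciferase signal from HIV-1 Env mediated cell-cell fusion of effector and target cells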
[15] = microbe, parasite or virus in culture; type: functional; settings: Mycobacterium tuberculosis
[16] = system: HEK293; experiment: cells; type: functional, cell-based; settings: Homo sapiens
[17] = system: HEK293; experiment: cells; type: functional, cell-based; settings: Homo sapiens; remark: listed apart in the source
[18] = system: HEK293; experiment: NOD2 signaling inhibitors in MDP-stimulated cells, cell-based, uHTS, luminescence (AID 2001); type: functional; settings: Homo sapiens
[19] = system: HEK293; experiment: inhibition of NOD1-driven NF-kB reporter – cell-based, luminescence, uHTS, primary screen (AID 1578); type: functional; settings: Homo sapiens
[20] = non-specific 3'UTR reporter inhibition in Clone20-Shn3RL – cell-based, Renilla luciferase, cherry-picked, counter-screen for Shn3 inhibitor project, dose response (AID 624133); type: functional
[21] = reduction of Shn3 3'UTR-driven luciferase in osteoblasts – cell-based, Clone20 osteoblasts, firefly luciferase, cherry-picked, dose response (AID 624132); type: functional;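 also: firefly luciferase luminescence from reporter carrying the Shn3 3'UTR in osteoblasts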
[22] = system: P388/ADR; experiment: cells; type: functional; settings: Mus musculus, P388/ADR

Eukaryotic translation initiation factor 4E, sequence (P63073 whole entry): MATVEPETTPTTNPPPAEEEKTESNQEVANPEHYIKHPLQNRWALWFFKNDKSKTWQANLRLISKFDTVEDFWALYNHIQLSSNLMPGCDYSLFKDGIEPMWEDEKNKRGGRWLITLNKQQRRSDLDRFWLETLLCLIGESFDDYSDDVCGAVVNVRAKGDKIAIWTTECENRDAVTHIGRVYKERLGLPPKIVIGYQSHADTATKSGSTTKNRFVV

## COc1ccc(N2CCN(C(=O)CCNC(=O)Cn3ccc4ccccc4c3=O)CC2)cc1
[1]
  IC50: 50 µM (inactive)
[2]
  AC50: 8.16 µM (active)

## [O-][N+](=Cc1ccccc1)c1ccc(Cl)cc1
[3]
  IC50: 57 µM (inactive)

## COc1cccc2c(S)c(CCC(C)=O)c(C)nc12
[4]
  IC50: < 0.4 µM (active)

## O=C(O)CCCN1C(=O)C(O)=C(C(=O)c2ccc(Cl)cc2)C1c1ccccc1 (configuration not stated)
[5]
  IC50: > 66 µM (inactive)
[6]
  IC50: > 66 µM (inactive)

## CCCCN1C(=O)NC2NC(=O)NC21 (configuration not stated)
[7]
  IC50: 0.905 µM (active)
[8]
  IC50: > 100 µM (active)

## Nc1cc(Nc2ccc(Br)cc2)nc(N)n1
[5]
  IC50: 55.4 µM (inactive)
[6]
  IC50: > 66 µM (inactive)
[9]
  EC50: 17.4 µM (active)
[10]
  EC50: 11.3 µM (active)
[11]
  EC50: > 120 µM (not active)

## Cc1ccc(CNC(=O)Cn2cccc2C(=O)c2ccccc2)cc1
[12]
  EC50: 3.77 µM (active)

## Cc1c(NC(=O)c2cc(CC(C)C)on2)c(=O)n(-c2ccccc2)n1C
[1]
  IC50: > 64 µM (inactive)

## COc1ccccc1N(C(=O)c1snc(C(N)=O)c1N)C(C(=O)NCc1ccccc1)c1ccc(O)cc1 (configuration not stated)
[7]
  IC50: 50 µM (inactive)

## Cc1ccc(-n2c(Cc3cccn3C)nnc2SCC(=O)NCc2ccc3c(c2)OCO3)cc1
[12]
  EC50: 1.31 µM (active)

## Cc1nn(Cc2ccccc2)c(C)c1NC(=O)c1cc(-c2cccs2)on1
[12]
  EC50: 2.71 µM (active)

## COc1ccc(NC(=O)c2ccc(Cl)c(S(=O)(=O)N3CCc4ccccc4C3)c2)cn1
[13]
  AC50: 19.4 µM (active)
[14]
  AC50: 1.95 µM (active)
[15]
  CC50: > 40 µM (active)

## COC(=O)c1scc(C#N)c1N/N=C(\C#N)S(=O)(=O)c1ccc(Cl)cc1
[16]
  IC50: > 20 µM (inactive)
[17]
  IC50: > 20 µM (inactive)
[18]
  IC50: 18.8 µM (inactive)
[19]
  EC50: 6.08 µM (active)

## COc1ccc(NS(=O)(=O)c2ccc(NC(=O)C(CCSC)NC(N)=O)cc2)cc1 (configuration not stated)
[20]
  AC50: 26.9 µM (active)
[21]
  AC50: > 70 µM (inactive)

## C=C1CC2CC[C@@]34C[C@H]5O[C@@H]6C(O[C@H]7CC[C@H](CC(=O)OC8[C@H](C)C9OC%10C[C@]%11(C[C@@H]%12O[C@]%13(C[C@H](C)[C@@H]%14O[C@H]([C@H](O)C[C@H](O)CO)C[C@@H]%14O%13)C[C@H](C)[C@@H]%12O%11)OC%10CC9O[C@H]8C[C@H]8O[C@H](CC[C@@H]1O2)C[C@@H](C)C8=C)O[C@H]7[C@@H]6O3)[C@@H]5O4 (some centres not stated)
[22]
  GI50: 0.255 nM (active)

## Cc1ccc(N2C(S)=NC3c4cc(Cl)ccc4OC2(C)C3C(=O)N(C)C)cc1 (configuration not stated)
[5]
  IC50: > 66 µM (inactive)
[6]
  IC50: > 66 µM (inactive)

## COc1ccc(CN(C)CCCn2ccc(NC(=O)OCc3ccccc3)nc2=O)cc1OC
[7]
  IC50: 23.5 µM (inactive)

## NC(=O)c1nn(CC(=O)Nc2ccc3c(c2)OCO3)cc1[N+](=O)[O-]
[4]
  IC50: 15.3 µM (not active)
